Experimental data reported in ChEMBL document CHEMBL1159212, “Microbial metabolites of ophiobolin A and antimicrobial evaluation of ophiobolins” (1995).
Converted amounts (≈) assume the structure as drawn. The source made the active and inactive calls. The calls are words filed in the database; no cut-off is given here.

Experiments:
Cryptococcus neoformans = assay: Antifungal activity against Cryptococcus neoformans by agar-well diffusion assay; type: functional
[1] = system: Trichophyton mentagrophytes; assay: Antifungal activity against Trichophyton mentagrophytes by agar-well diffusion assay; type: functional; settings: for MIC: Trichophyton mentagrophytes
Staphylococcus aureus = assay: Antibacterial activity against Staphylococcus aureus by agar-well diffusion assay; type: functional
Escherichia coli = assay: Antibacterial activity against Escherichia coli by agar-well diffusion assay; type: functional, organism-based
[2] = system: Mycobacterium intracellulare; assay: Antibacterial activity against Mycobacterium intercellulare by agar-well diffusion assay; type: functional
Candida albicans = assay: Antifungal activity against Candida albicans by agar-well diffusion assay; type: functional; settings: for MIC: Candida albicans
Yarrowia deformans = assay: Antifungal activity against Torulopsis petrophilum by agar-well diffusion assay; type: functional
Candida = assay: Antifungal activity against Torulopsis cremoris by agar-well diffusion assay; type: functional
Aspergillus flavus = assay: Antifungal activity against Aspergillus flavus by agar-well diffusion assay; type: functional

| SMILES | inhibition zone (IZ) (Cryptococcus neoformans) | inhibition zone (IZ) [1] | Activity (Staphylococcus aureus) | Activity (Escherichia coli) | Activity [2] | Activity (Candida albicans) | MIC [1] | MIC (Yarrowia deformans) | MIC (Candida) | MIC (Aspergillus flavus) | MIC (Candida albicans) | inhibition zone (IZ) (Staphylococcus aureus) | inhibition zone (IZ) [2] | inhibition zone (IZ) (Escherichia coli) | inhibition zone (IZ) (Candida albicans) |
| --- | --- | --- | --- | --- | --- | --- | --- | --- | --- | --- | --- | --- | --- | --- | --- |
| CC(C)=CCC[C@H](C)[C@@]1(O)CC[C@]2(C)C[C@H]3[C@H]4/C(=C\C[C@H]21)C(=O)O[C@H]4C[C@@]3(C)O [OPHIOBOLIN B LACTONE] | 1 mm | 7 mm | inactive | inactive | inactive | inactive |  |  |  |  |  |  |  |  |  |
| C[C@@H]1[C@H](O)[C@@H](C)/C=C/C=C/C=C/C=C/C=C/C=C/C=C/[C@H](O[C@@H]2O[C@H](C)[C@@H](O)[C@H](N)[C@@H]2O)C[C@@H]2O[C@](O)(C[C@@H](O)C[C@@H](O)[C@H](O)CC[C@@H](O)C[C@@H](O)CC(=O)O[C@H]1C)C[C@H](O)[C@H]2C(=O)O [AMPHOTERICIN B] |  |  |  |  |  |  | 0.78 µg/mL (≈ 0.844 µM) | 0.2 µg/mL (≈ 0.216 µM) | 3.12 µg/mL (≈ 3.38 µM) | 3.12 µg/mL (≈ 3.38 µM) | 0.78 µg/mL (≈ 0.844 µM) |  |  |  |  |
| CC(C)=CCC[C@H](C)[C@@]1(O)CC[C@]2(C)C[C@H]3[C@H](C(=O)C[C@@]3(C)O)/C(C=O)=C\C[C@H]21 [OPHIOBOLIN B] | <=1 mm | 7 mm |  | inactive | inactive | inactive |  |  |  |  |  | 3 mm |  |  |  |
| CC(C)=C[C@H]1C[C@H](C)[C@]2(CC[C@]3(C)C[C@H]4[C@H]5/C(=C\C[C@H]32)C(=O)O[C@H]5C[C@@]4(C)O)O1 [OPHIOBOLIN A LACTONE] | 1 mm | 7 mm | inactive | inactive |  | inactive |  |  |  |  |  |  | 3 mm |  |  |
| CC(C)=C[C@H]1C[C@H](C)[C@]2(CC[C@]3(C)C[C@@H]4C(C)=CC(=O)[C@H]4/C(CO)=C\C[C@H]32)O1 [OPHIOBOLIN I] | 1 mm | 7 mm | inactive | inactive |  | inactive |  |  |  |  |  |  | 3 mm |  |  |
| CC(C)=C[C@H]1C[C@H](C)[C@]2(CC[C@]3(C)C[C@H]4[C@H]5/C(=C\C[C@H]32)C(=O)OC5(O)C[C@@]4(C)O)O1 (stereo partly specified) [OPHIOBOLIN L] | 3 mm |  |  |  |  |  |  |  |  |  |  | inactive | 3 mm | inactive | 1 mm |
| CC(C)=C[C@H]1C[C@H](C)[C@]2(CC[C@]3(C)C[C@H]4[C@H](C(=O)C[C@@]4(C)O)/C(C=O)=C\C[C@H]32)O1 [OPHIOBOLIN A] | 3 mm | >12 mm |  | inactive |  |  | 12.5 µg/mL (≈ 31.2 µM) | 1.56 µg/mL (≈ 3.89 µM) | 0.2 µg/mL (≈ 0.499 µM) | 25 µg/mL (≈ 62.4 µM) | 125 µg/mL (≈ 312 µM) | 7 mm | 3 mm |  | 7 mm |
| CC(C)=C[C@H]1C[C@H](C)[C@]2(CC[C@]3(C)C[C@H]4[C@@H]5/C(=C\C[C@H]32)C(=O)OC5(O)C[C@@]4(C)O)O1 (stereo partly specified) | <=1 mm | <=7 mm |  | inactive | inactive | inactive |  |  |  |  |  | >12 mm |  |  |  |
